Like-named read-outs stand apart in the source and are kept apart here.
Experiment: Population toxicokinetic modeling of MDMH and DMH plasma data (IV and TD)
Format: in vivo
Settings: population estimate, rats; for Vd / clearance: male, Sprague-Dawley, rat, plasma, other: intravenous and transdermal data pooled
Description: POP-TK modeling was performed to develop a compartment model describing the disposition of MDMH and DMH following different administration routes. Plasma concentration data from all studies were combined for model development.
The compartment model was designed to fit the absorption phase following TD application, disposition kinetics of MDMH and DMH following IV injection. The disposition phase of MDMH was described with a one-compartment model.
For transdermal application, MDMH applied to the skin undergoes simultaneous absorption and metabolic conversion to DMH and formaldehyde. This process was described by a first-order rate constant (ka,met) representing the combined absorption-metabolism kinetics. The parameter Fa,met represents the fraction of applied dose that penetrates the skin and undergoes metabolic conversion, accounting for incomplete absorption.
DMH formed in the skin compartment subsequently undergoes absorption into systemic circulation. This absorption was modeled using a first-order rate constant (ka,DMH) with three transit compartments to describe the delayed appearance of DMH in plasma.
The disposition of MDMH and DMH was assessed using a linear model with a central and one, two, or three peripheral compartments. The model incorporated both skin metabolism and systemic metabolism of MDMH to DMH. Systemic metabolism was described by the […], representing the fraction of eliminated MDMH that is converted to DMH in the central compartment. Molecular weight correction was applied to account for stoichiometric conversion relationships.
The final disposition and elimination compartment model was determined to use one central compartment for MDMH and one central and one peripheral compartment for DMH based on the objective function.
The differential equations for the amounts of MDMH in the central (XCentral,MDMH) compartments and DMH in the central (XCentral,DMH) and peripheral (XPeripheral,DMH) compartments were:(7) dXCentral,MDMH/dt=−CLMDMH·CCentral,MDMH (8) dXCentral,DMH/dt=−CLDMH·CCentral,DMH−CLDDMH·CCentral,DMH+CLDDMH·CPeripheral,DMH+ka,DMH·XTransit3,DMH+(MWDMH/MWMDMH)·CLMDMH·CCentral,MDMH (9) dXPeripheral,DMH/dt=+CLDDMH·CCentral,DMH−CLDDMH·CPeripheral,DMH
CCentral,MDMH and CCentral,DMH represent MDMH and DMH plasma concentrations in respective compartments and CPeripheral,DMH represent DMH concentration in peripheral compartment. CLMDMH and CLDMH were systemic clearance of MDMH and DMH and CLDDMH was distribution clearance.
The plasma concentrations of MDMH and DMH were simultaneously modeled and predicted using POP-TK modeling with the stochastic approximation expectation maximization (SAEM) algorithm in the parallelized Monolix® 2023R1 (Lixoft, Antony, Paris, France) and Berkeley Madonna version 8.3.11 (University of California at Berkeley, Berkeley, CA, USA). An importance sampling SAEM was used for population parameter estimation to describe the between-subject variability (BSV) for each parameter estimate.

SMILES: CC1(C)NC(=O)NC1=O [DMH, 5,5-dimethylhydantoin]
- Vd (Mean (BSV), read-out: Central volume of distribution for DMH (Vc,DMH)): 0.32 L
- clearance (Mean (BSV), read-out: Clearance for DMH (CLDMH) (converted)): 3.17 mL/min
- Absorption rate constant for DMH into the central compartment from skin (ka,DMH) (Mean (BSV)): 8.03 (38.33) 1/h
- Distribution clearance for DMH (CLDDMH) (Mean (BSV)): 5.73 (71.8) L/h
- Peripheral volume of distribution for DMH (Vp,DMH) (Mean (BSV)): 0.43 (35.86) L
- absorption rate constant for DMH (ka,DMH): 8.03 h⁻¹

SMILES: CC1(C)C(=O)NC(=O)N1CO [MDMH, 1-(Hydroxymethyl)-5,5-dimethylhydantoin]
- Vd (Mean (BSV), read-out: Central volume of distribution for MDMH (Vc,MDMH)): 1.18 L
- clearance (Mean (BSV), read-out: Clearance for MDMH (CLMDMH) (converted)): 2460 mL/min
- Absorption-metabolism rate constant for MDMH in skin (Ka,met) (Mean (BSV)): 0.31 (6.44) 1/h
- combined absorption-metabolism rate constant (ka,met): 0.31 h⁻¹

From paper PMC12656566, “Toxicokinetic Characterization of MDM Hydantoin via Stable Metabolite DMH: Population Modeling for Predicting Dermal Formaldehyde Formation” (Toxics, 2025)
